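Compound exposure: 48 hours, 5 concentrations, 96-well plates. Definition used: TGI = concentration required for complete inhibition of growth.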
Tests used:
Assay in all cases: DTP human tumour cell line panel, 48 h
[1] = test system: OVCAR-5 ovarian
[2] = test system: UACC-62 melanoma
[3] = test system: RXF 393 renal
[4] = test system: SK-MEL-28 melanoma
[5] = test system: NCI-H23 lung
[6] = test system: HCC-2998 colon
[7] = test system: HL-60(TB) leukemia
[8] = test system: KM12 colon
[9] = test system: OVCAR-4 ovarian
[10] = test system: HOP-92 NSCLC
[11] = test system: A549 NSCLC
[12] = test system: NCI-H460 lung
[13] = test system: DMS 114 small cell lung
[14] = test system: M19-MEL melanoma
[15] = test system: SF-539 CNS
[16] = test system: HCT-116 colon
[17] = test system: TK-10 renal
[18] = test system: SF-295 CNS
[19] = test system: NCI-H522 lung
[20] = test system: SNB-78 CNS
[21] = test system: 786-0 renal
[22] = test system: DMS 273 small cell lung
[23] = test system: HOP-62 NSCLC
[24] = test system: NCI-H226 lung
[25] = test system: XF 498 CNS
[26] = test system: SNB-19 CNS
[27] = test system: CCRF-CEM leukemia
[28] = test system: IGROV1 ovarian
[29] = test system: M14 melanoma
[30] = test system: UO-31 renal
[31] = test system: HT29 colon
[32] = test system: CAKI-1 renal
[33] = test system: OVCAR-3 ovarian
[34] = test system: A498 renal
[35] = test system: EKVX NSCLC
[36] = test system: SW-620 colon
[37] = test system: ACHN renal
[38] = test system: MOLT-4 leukemia
[39] = test system: SK-MEL-2 melanoma
[40] = test system: SF-268 CNS
[41] = test system: SN12C renal
[42] = test system: MALME-3M melanoma
[43] = test system: SNB-75 CNS
[44] = test system: SK-MEL-5 melanoma
[45] = test system: SK-OV-3 ovarian
[46] = test system: RPMI-8226 leukemia
[47] = test system: KM20L2 colon
[48] = test system: LOX IMVI melanoma
[49] = test system: HCT-15 colon
[50] = test system: UACC-257 melanoma
[51] = test system: DLD-1 colon
[52] = test system: OVCAR-8 ovarian
[53] = test system: K-562 leukemia
[54] = test system: COLO 205 colon
[55] = test system: SR leukemia
[56] = test system: LXFL 529 NSCLC
[57] = test system: U251 CNS
[58] = test system: MCF7 breast
[59] = test system: DU-145 prostate
[60] = test system: PC-3 prostate
[61] = test system: HS 578T breast
[62] = test system: NCI/ADR-RES ovarian
[63] = test system: BT-549 breast
[64] = test system: MDA-MB-435
[65] = test system: T-47D breast
[66] = test system: MDA-MB-231 breast
[67] = test system: MDA-N

C=C(CS(=O)(=O)c1ccccc1)[P+](c1ccccc1)(c1ccccc1)c1ccccc1
TGI [1]: > 100 µM | TGI [2]: 56.9 µM | TGI [3]: 38.4 µM | TGI [4]: 25.5 µM | TGI [5]: 62.7 µM | TGI [6]: 47.2 µM | TGI [7]: 32.6 µM | TGI [8]: 29 µM | TGI [9]: > 100 µM | TGI [10]: 65.6 µM | TGI [11]: > 100 µM | TGI [12]: 66 µM | TGI [13]: 58.7 µM | TGI [14]: 50.4 µM | TGI [15]: 78.2 µM | TGI [16]: 25.2 µM | TGI [17]: 92.4 µM | TGI [18]: 50 µM | TGI [19]: 44.1 µM | TGI [20]: > 100 µM | TGI [21]: 47.3 µM | TGI [22]: 33.4 µM | TGI [23]: 90 µM | TGI [24]: 36.7 µM | TGI [25]: 28.9 µM | TGI [26]: > 100 µM | TGI [27]: 25 µM | TGI [28]: 68.4 µM | TGI [29]: 39.4 µM | TGI [30]: 94.3 µM | TGI [31]: 37.3 µM | TGI [32]: 65.9 µM | TGI [33]: 37.9 µM | TGI [34]: > 100 µM | TGI [35]: > 100 µM | TGI [36]: 51.1 µM | TGI [37]: 53.1 µM | TGI [38]: 39.6 µM | TGI [39]: > 100 µM | TGI [40]: 29.6 µM | TGI [41]: 32.4 µM | TGI [42]: 38.3 µM | TGI [43]: 67.3 µM | TGI [44]: 29.1 µM | TGI [45]: 81.6 µM | TGI [46]: 11.4 µM | TGI [47]: 32.8 µM | TGI [48]: 30 µM | TGI [49]: > 100 µM | TGI [50]: 22.2 µM | TGI [51]: > 100 µM | TGI [52]: 74.1 µM | TGI [53]: 31.7 µM

CN(c1ccccc1)C1C(=O)N(c2ccccc2)C1/C=C/c1ccccc1 (centres undefined)
TGI [1]: > 100 µM | TGI [2]: > 100 µM | TGI [3]: > 100 µM | TGI [4]: > 100 µM | TGI [5]: > 100 µM | TGI [6]: > 100 µM | TGI [54]: > 100 µM | TGI [7]: > 100 µM | TGI [8]: > 100 µM | TGI [10]: > 100 µM | TGI [11]: > 100 µM | TGI [12]: > 100 µM | TGI [14]: > 100 µM | TGI [15]: > 100 µM | TGI [16]: > 100 µM | TGI [17]: > 100 µM | TGI [18]: > 100 µM | TGI [19]: > 100 µM | TGI [20]: > 100 µM | TGI [21]: > 100 µM | TGI [22]: > 100 µM | TGI [24]: > 100 µM | TGI [26]: > 100 µM | TGI [27]: > 100 µM | TGI [28]: > 100 µM | TGI [30]: > 100 µM | TGI [31]: > 100 µM | TGI [55]: > 100 µM | TGI [32]: > 100 µM | TGI [33]: > 100 µM | TGI [34]: > 100 µM | TGI [35]: > 100 µM | TGI [56]: > 100 µM | TGI [36]: > 100 µM | TGI [37]: > 100 µM | TGI [38]: > 100 µM | TGI [39]: > 100 µM | TGI [40]: > 100 µM | TGI [41]: > 100 µM | TGI [42]: > 100 µM | TGI [57]: > 100 µM | TGI [43]: > 100 µM | TGI [44]: > 100 µM | TGI [45]: > 100 µM | TGI [46]: > 100 µM | TGI [50]: > 100 µM | TGI [51]: > 100 µM | TGI [52]: > 100 µM

CC(=O)OC(C)(C)N=Nc1ccc(Br)cc1
TGI [58]: > 100 µM | TGI [1]: > 100 µM | TGI [2]: > 100 µM | TGI [3]: > 60.4 µM | TGI [59]: > 100 µM | TGI [4]: > 100 µM | TGI [5]: > 100 µM | TGI [6]: > 100 µM | TGI [54]: 1.03 µM | TGI [7]: 28 µM | TGI [8]: > 100 µM | TGI [9]: > 100 µM | TGI [10]: 67.6 µM | TGI [11]: > 100 µM | TGI [60]: > 100 µM | TGI [61]: > 100 µM | TGI [12]: 26 µM | TGI [15]: > 100 µM | TGI [16]: > 100 µM | TGI [17]: > 87.9 µM | TGI [18]: > 60.1 µM | TGI [19]: 33.8 µM | TGI [21]: > 100 µM | TGI [23]: > 100 µM | TGI [24]: > 50.5 µM | TGI [26]: > 100 µM | TGI [62]: 76.7 µM | TGI [27]: > 78.5 µM | TGI [28]: > 100 µM | TGI [29]: > 100 µM | TGI [30]: 15.9 µM | TGI [31]: > 100 µM | TGI [55]: 43.3 µM | TGI [32]: 48.3 µM | TGI [63]: > 100 µM | TGI [33]: > 100 µM | TGI [34]: > 100 µM | TGI [35]: > 100 µM | TGI [36]: > 100 µM | TGI [37]: 23.1 µM | TGI [38]: > 90.3 µM | TGI [39]: > 100 µM | TGI [40]: > 100 µM | TGI [41]: > 100 µM | TGI [64]: > 100 µM | TGI [65]: 44.4 µM | TGI [66]: > 100 µM | TGI [42]: > 100 µM | TGI [57]: > 100 µM | TGI [43]: > 91.5 µM | TGI [44]: 6.26 µM | TGI [45]: > 100 µM | TGI [46]: 36.2 µM | TGI [67]: > 100 µM | TGI [48]: 33.7 µM | TGI [49]: > 100 µM | TGI [50]: 66.2 µM | TGI [52]: 64.1 µM | TGI [53]: 21.4 µM

CC1=CCC[C@@H]2[C@@](C)(Cc3cc(O)ccc3O)[C@H](C)CC[C@@]12C
TGI [58]: 18.7 µM | TGI [1]: 28.3 µM | TGI [2]: 25.1 µM | TGI [3]: 17.1 µM | TGI [59]: 27.1 µM | TGI [4]: 25.5 µM | TGI [5]: 14.1 µM | TGI [6]: 22.5 µM | TGI [54]: 36.5 µM | TGI [7]: 6.6 µM | TGI [8]: 16.4 µM | TGI [9]: 25.7 µM | TGI [10]: 15.2 µM | TGI [11]: 17.6 µM | TGI [60]: 14.1 µM | TGI [61]: 20.6 µM | TGI [12]: 22.4 µM | TGI [15]: 18.4 µM | TGI [16]: 18.8 µM | TGI [17]: 22.2 µM | TGI [18]: 20 µM | TGI [19]: 14.1 µM | TGI [21]: 21.7 µM | TGI [23]: 22.1 µM | TGI [24]: 39.3 µM | TGI [26]: 21.5 µM | TGI [62]: 18.9 µM | TGI [27]: 15.1 µM | TGI [28]: 18.2 µM | TGI [29]: 15.7 µM | TGI [30]: 12.8 µM | TGI [31]: 42.7 µM | TGI [55]: 12.6 µM | TGI [32]: 25.7 µM | TGI [63]: 13.1 µM | TGI [33]: 15.3 µM | TGI [34]: 32.7 µM | TGI [35]: 20.3 µM | TGI [36]: 25.2 µM | TGI [37]: 18 µM | TGI [38]: 15 µM | TGI [39]: 27.9 µM | TGI [40]: 24 µM | TGI [41]: 27 µM | TGI [64]: 19.5 µM | TGI [65]: 20.1 µM | TGI [66]: 30.2 µM | TGI [42]: 33.1 µM | TGI [57]: 15.9 µM | TGI [43]: 17.9 µM | TGI [44]: 19.1 µM | TGI [45]: 26 µM | TGI [46]: 21.7 µM | TGI [67]: 17 µM | TGI [48]: 17.7 µM | TGI [49]: 16 µM | TGI [50]: 26.2 µM | TGI [52]: 16.7 µM | TGI [53]: 36 µM

— PubChem BioAssay (NCI)
